Experimental data published in patent US10597388B2, “Pyridazinone herbicides” (FMC CORPORATION, priority 2014, dated 2020).

How the values were obtained:
Format in all cases: in vivo
[1] = tested on: wheat (Triticum aestivum); experiment: Test A greenhouse herbicide test, pre- and postemergence; conditions: Postemergence; for Plant response rating, Wheat: 125 g ai/ha, 0 to 100 scale where 0 is no effect and 100 is complete control; for Wheat plant response rating: 500 g ai/ha, 0 to 100 scale, 0 is no effect, 100 is complete control
Procedure, shortened: (§1)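 Seeds sown in loam–sand blend got a preemergence directed soil spray of compound in non-phytotoxic solvent with surfactant. Postemergence treatment was given at 2–10 cm, one- to two-leaf stage. After ~10 d in greenhouse, injury was rated visually vs untreated controls, 0 (no effect) to 100 (complete control).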

[2] = tested on: pigweed (Amaranthus retroflexus); experiment: as above
Procedure, shortened: as §1

[3] = tested on: ragweed (common ragweed, Ambrosia elatior); experiment: as above
Procedure, shortened: as §1

[4] = tested on: barnyardgrass (Echinochloa crus-galli); experiment: as above
Procedure, shortened: as §1

[5] = tested on: corn (Zea mays); experiment: as above; conditions: Postemergence; for Plant response rating, Corn: 125 g ai/ha, 0 to 100 scale where 0 is no effect and 100 is complete control; for Corn plant response rating: 500 g ai/ha, 0 to 100 scale, 0 is no effect, 100 is complete control
Procedure, shortened: as §1

[6] = tested on: kochia (Kochia scoparia); experiment: as above
Procedure, shortened: as §1

[7] = tested on: crabgrass, large (large crabgrass, Digitaria sanguinalis); experiment: Test C greenhouse herbicide test, pre- and postemergence
Procedure, shortened: (§2)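 Preemergence: seeds sown in a loam soil–sand blend and sprayed with test chemicals in a non-phytotoxic solvent mixture containing surfactant. Postemergence: plants grown in peat-based medium and treated at 2 to 18 cm (1- to 4-leaf stage). After 13 to 15 d in a greenhouse, injury was visually rated 0–100 against controls.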

[8] = tested on: oilseed rape (Brassica napus); experiment: as above
Procedure, shortened: as §2

[9] = tested on: oat, wild (wild oat, Avena fatua); experiment: Test C greenhouse herbicide test, postemergence
Procedure, shortened: (§3)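 Seedlings are raised in pots of peat moss–vermiculite medium with starter nutrients, then receive postemergence test chemical at the 1- to 4-leaf stage. They are kept in the greenhouse 13 to 15 d and scored visually versus controls, 0 meaning no effect and 100 complete control.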

[10] = tested on: kochia (Kochia scoparia); experiment: Test C greenhouse herbicide test, postemergence
Procedure, shortened: as §3

[11] = tested on: galium (catchweed bedstraw, Galium aparine); experiment: Test A greenhouse herbicide test, postemergence; conditions: for Plant response rating, Galium: 125 g ai/ha, 0 to 100 scale where 0 is no effect and 100 is complete control; for Galium plant response rating: 500 g ai/ha, 0 to 100 scale, 0 is no effect, 100 is complete control
Procedure, shortened: (§4)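 Greenhouse postemergence test: formulated chemicals sprayed on one- to two-leaf plants (2 to 10 cm), grown in loam soil blended with sand. Injury assessed visually about 10 d later against untreated controls, scored 0 (no effect) to 100 (complete control).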

[12] = tested on: blackgrass (Alopecurus myosuroides); experiment: Test A greenhouse herbicide test, postemergence; conditions: for Plant response rating, Blackgrass: 125 g ai/ha, 0 to 100 scale where 0 is no effect and 100 is complete control; for Blackgrass plant response rating: 500 g ai/ha, 0 to 100 scale, 0 is no effect, 100 is complete control
Procedure, shortened: as §4

[13] = Postemergence, 125 g ai/ha, 0 to 100 scale where 0 is no effect and 100 is complete control
[14] = Postemergence, 500 g ai/ha, 0 to 100 scale, 0 is no effect, 100 is complete control
[15] = Preemergence, 125 g ai/ha, 0 to 100 scale where 0 is no effect and 100 is complete control
[16] = Preemergence, 500 g ai/ha, 0 to 100 scale, 0 no effect, 100 complete control
[17] = Postemergence, 16 g ai/ha, scale 0 to 100 (0 no effect, 100 complete control)
[18] = Postemergence, 31 g ai/ha, 0 to 100 scale (0 no effect, 100 complete control)
[19] = Postemergence, 125 g ai/ha, scale 0 to 100, 0 is no effect, 100 is complete control
[20] = postemergence, 62 g ai/ha, scale 0 to 100, 0 no effect, 100 complete control
[21] = Postemergence, 250 g ai/ha, scale 0 to 100, 0 no effect, 100 complete control, 13 to 15 d
[22] = Preemergence, 31 g ai/ha, scale 0 to 100, 0 is no effect, 100 is complete control
[23] = Preemergence, 62 g ai/ha, scale 0 to 100, 0 is no effect, 100 is complete control
[24] = Preemergence, 125 g ai/ha, scale 0 to 100, 0 is no effect, 100 is complete control
[25] = Preemergence, 250 g ai/ha, scale 0 to 100 (0 no effect, 100 complete control)

SMILES: COc1ccc2ccccc2c1-c1c(O)c(C)nn(C)c1=O [Compound 40]
- Plant response rating, Wheat [1]: 0
- Wheat plant response rating [1]: 50
- Plant response rating, Pigweed [2, 13]: 80
- Pigweed plant response rating [2, 14]: 100
- Pigweed plant response rating [2, 15]: 90
- Plant response rating, Pigweed [2, 16]: 100
- Plant response rating, Ragweed [3, 13]: 70
- Ragweed plant response rating [3, 14]: 90
- Ragweed plant response rating [3, 15]: 30
- Plant response rating, Ragweed [3, 16]: 80
- Plant response rating, Barnyardgrass [4, 13]: 10
- Barnyardgrass plant response rating [4, 14]: 60
- Barnyardgrass plant response rating [4, 15]: 10
- Plant response rating, Barnyardgrass [4, 16]: 50
- Plant response rating, Corn [5]: 0
- Corn plant response rating [5]: 10
- Plant response rating, Kochia [6, 13]: 80
- Kochia plant response rating [6, 14]: 90
- Kochia plant response rating [6, 15]: 50
- Plant response rating, Kochia [6, 16]: 80
- Plant response rating, Crabgrass, Large [7, 17]: 5
- Crabgrass, Large plant response rating [7, 18]: 5
- Plant response rating, Crabgrass, Large [7, 19]: 10
- Crabgrass, Large plant response rating [7, 20]: 5
- Plant response rating, Oilseed Rape [8, 17]: 0
- Oilseed Rape plant response rating [8, 18]: 5
- Plant response rating, Oilseed Rape [8, 19]: 5
- Oilseed Rape plant response rating [8, 20]: 30
- Plant response rating, Oat, Wild [9, 17]: 5
- Oat, Wild plant response rating [9, 18]: 35
- Plant response rating, Oat, Wild [9, 19]: 60
- Oat, Wild plant response rating [9, 20]: 50
- Plant response rating, Kochia [10, 17]: 20
- Kochia plant response rating [10, 18]: 70
- Plant response rating, Kochia [10, 19]: 0
- Kochia plant response rating [10, 20]: 80
- Plant response rating, Galium [11]: 90
- Galium plant response rating [11]: 100
- Plant response rating, Blackgrass [12]: 60
- Blackgrass plant response rating [12]: 80

SMILES: CCC(=O)Oc1c(C)nn(C)c(=O)c1-c1c(C)sc2ccc(C)cc12 [Compound 42]
- Plant response rating, Wheat [1]: 0
- Wheat plant response rating [1]: 20
- Plant response rating, Pigweed [2, 13]: 90
- Pigweed plant response rating [2, 14]: 100
- Pigweed plant response rating [2, 15]: 100
- Plant response rating, Pigweed [2, 16]: 100
- Plant response rating, Ragweed [3, 13]: 100
- Ragweed plant response rating [3, 14]: 100
- Ragweed plant response rating [3, 15]: 90
- Plant response rating, Ragweed [3, 16]: 100
- Plant response rating, Barnyardgrass [4, 13]: 30
- Barnyardgrass plant response rating [4, 14]: 90
- Barnyardgrass plant response rating [4, 15]: 80
- Plant response rating, Barnyardgrass [4, 16]: 100
- Plant response rating, Corn [5]: 0
- Corn plant response rating [5]: 20
- Plant response rating, Kochia [6, 13]: 100
- Kochia plant response rating [6, 14]: 100
- Kochia plant response rating [6, 15]: 80
- Plant response rating, Kochia [6, 16]: 100
- Crabgrass, Large plant response rating [7, 18]: 10
- Plant response rating, Crabgrass, Large [7, 19]: 20
- Plant response rating, Crabgrass, Large [7, 21]: 20
- Plant response rating, Crabgrass, Large [7, 22]: 55
- Plant response rating, Crabgrass, Large [7, 23]: 70
- Plant response rating, Crabgrass, Large [7, 24]: 80
- Crabgrass, Large plant response rating [7, 25]: 85
- Crabgrass, Large plant response rating [7, 20]: 15
- Oilseed Rape plant response rating [8, 18]: 0
- Plant response rating, Oilseed Rape [8, 19]: 10
- Plant response rating, Oilseed Rape [8, 21]: 0
- Plant response rating, Oilseed Rape [8, 22]: 0
- Plant response rating, Oilseed Rape [8, 23]: 0
- Plant response rating, Oilseed Rape [8, 24]: 5
- Oilseed Rape plant response rating [8, 25]: 20
- Oilseed Rape plant response rating [8, 20]: 5
- Oat, Wild plant response rating [9, 18]: 75
- Plant response rating, Oat, Wild [9, 19]: 90
- Plant response rating, Oat, Wild [9, 21]: 95
- Oat, Wild plant response rating [9, 20]: 90
- Kochia plant response rating [10, 18]: 90
- Plant response rating, Kochia [10, 19]: 100
- Plant response rating, Kochia [10, 21]: 100
- Kochia plant response rating [10, 20]: 100
- Plant response rating, Galium [11]: 100
- Galium plant response rating [11]: 100
- Plant response rating, Blackgrass [12]: 80
- Blackgrass plant response rating [12]: 90
